Experimental data published in patent US20070270455A1, “INHIBITION OF NF-kB” (priority 2005, published 2007).

How the values were obtained:
p53 null H1299 cells = experiment: p53-responsive reporter assay in p53 null cells; format: cell-based
From the text: (§1) Bars represent folds of p53 responsive reporter induction over untreated controls. Box represents western blot analysis of p53 expression in total protein lysates of both cells variants in basal and doxorubicin treated conditions (to evaluate basal and DNA-damage induced level of p53). […] Fold induction presented as fold of reporter activation over untreated control. […] Fold induction presented as fold of reporter activation over untreated control.
(§2) For cotransfection set-up, 2×10^5 cells were plated into 6 well plates and, after overnight incubation, transfected with Lipofectamin Plus reagent (Gibco BRL) with 0.5 μg of reporter plasmids (p21-ConALuc or pNF-κBLuc) in combination with different concentrations of p53, Arf, Ss-IκB, or siHDM2 expressing plasmids. Corresponding empty vectors were added into all transfections up to 2 μg of total DNA amount. […] Luciferase activity and β-galactosidase activity was measured in lysates prepared 48 hours after transfection with Cell Lysis Buffer (Promega) by luciferase assay system (Promega) or β-galactosidase enzyme system (Promega). Luminometric and colorimetric reactions were read on the Wallack 1420 plate reader (Perkin Elmer). […] Luciferase or β-galactosidase activity and protein concentration were measured in aliquots of cell lysates using standard kits (Promega, Luciferase and β-galactosidase assay systems, Biorad Protein Assay Kit).

MCF7ConALacZ cells = experiment: p53-responsive reporter assay in MCF7 cells; format: cell-based; settings: compared with doxorubicin
From the text: as §1, §2

RCC cell lines = experiment: Restoration of p53-mediated transactivation in RCC cell lines; format: cell-based; settings: data not shown
HT1080ConALuC tumors = experiment: p53-dependent luciferase reporter in xenograft tumors; format: in vivo; settings: intraperitoneal; 24 hours; nude mice
Procedure: HT1080ConALuC cells were inoculated into two flanks of nude mice. When tumors reach 5 mm in diameter, mice were injected intraperitoneally with indicated concentrations of the drugs (mg/kg, 3 mice per group). After 24 hours mice were sacrificed, tumors were isolated, lysed in Reporter Lysis Reagent (Promega) and luciferase activity was measured in […] of tumor proteins. Bars represent fold of induction of luciferase activity in tumors, treated with drugs over luciferase activity in tumors treated with vehicle. FIG. 5B: HT1080sip53 or HT1080siGFP cells were inoculated in the left and right flank of nude mice respectively.
NIH Swiss athymic nude, male mice, 5-6 weeks old were purchased from Harlan. 5×10^6 of tumor cells were inoculated into the flank of mice in 100 μL of PBS. […] As vehicle, 50% DMSO solution in PBS was used. Tumor size was measured in three dimensions every other day.
The in vivo anti-tumor effects of aminoacridines were tested in a xenograft tumor model using HT1080 cells differing in their p53 status and carrying p53 luciferase reporters grown subcutaneously in nude mice.

p53 = experiment: Western blot of p53 phosphorylation status in RCC45 cells; format: cell-based; settings: 9AA 5 μM or dox 1 μM, 16 hours
Procedure: Western blot analysis of total protein lysates was performed using antibodies against p53 (DO1) and against specific sites of phosphorylation in p53. […] HCT116 cells were treated for 30 minutes with 1 μM PS-341. PS-341 was washed off after 30 minutes and cells were re-incubated in drug free medium prior to analysis at 3 hours or 16 hours post-treatment. […] Proteasome activity was determined by measuring the absorbance of free AMC generated by cleavage of an AMC-fluorogenic peptide. The proteasome activity of untreated cells was set at 100%. […] Cell lysates were isolated at the indicated hours after treatment and used for western blotting. […]
Cells were lysed in RIPA buffer (25 mM Tris HCl, pH7.2, 125 mM NaCl, 1% NP40, 1% sodium deoxycholate, 1 mM EDTA) containing 1 mM PMSF (Sigma), 10 μg/ml of aprotinin (Sigma) and 10 μg/ml of leupeptin (Sigma). Protein concentrations were determined with BioRad Dc protein assay kit. […] The following antibodies were used: anti-p53—monoclonal mouse DO1 (Santa-Cruz), anti-p21—monoclonal mouse F-5 (Santa-Cruz), anti-mdm2—monoclonal mouse SMP14 (Santa-Cruz). p53 phosphorylation status was analyzed using phospho-p53 sampler kit from Cell signaling according to manufacturer's recommendations, anti-p65—(C20, Santa Cruz), anti-phospho-p65—(ser536, Cell Signaling), anti-IκBa—(C21, Santa Cruz), anti-p50—(NLS, Santa Cruz). […]

RCC54 = experiment: Global gene expression profile by microarray hybridization, RCC54; format: cell-based; settings: 36847 genes; at least in one dose (2 μM, 10 μM) in both cell lines RCC45 and RCC54; 16 hours
Procedure: RNA was isolated after 16 hours of treatment that was enough to induce p53 but before appearance of signs of cell death. Among the 36847 genes represented on the array, only 0.6% changed their mRNA abundance by at least a factor of 2 at least in one dose in both cell lines.

Nc1c2ccccc2nc2ccccc12 [9AA, 9-aminoacridine]
stimulation of p53 reporter activity (p53 null H1299 cells): no stimulation of reporter activity
induction of p53 reporter and p53-responsive genes (in words) (MCF7ConALacZ cells): weaker than that of doxorubicin
RCC cell lines with restored p53-mediated transactivation (RCC cell lines): 9 out of 10
activation of p53 in tumors (HT1080ConALuC tumors): capable of activating p53 in tumors
p53 phosphorylation status (p53): did not affect
genes that changed mRNA abundance by at least a factor of 2 (RCC54): 0.6%
